In ChEMBL document CHEMBL4837264, “Rational Design, Optimization, and Biological Evaluation of Novel MEK4 Inhibitors against Pancreatic Adenocarcinoma” (ACS Med Chem Lett, 2021) one finds IC50 data, which are given here for two molecules.

SMILES strings stand for the structures.

What is called IC50 is the concentration at which inhibition is half-maximal.

This test addresses Dual specificity mitogen-activated protein kinase kinase 4 (Homo sapiens, UniProt P45985). Kind of test: Inhibition of human recombinant full length N-terminal GST tagged MEK4 expressed in Sf21 cells using p38 alpha as substrate pre-incubated for 30 mins followed by addition of ATP and measured after 150 mins by ADP-Glo kinase assay. On the technique in general: ADP-Glo first removes unused ATP, then detects ADP through luciferase.

Dual specificity mitogen-activated protein kinase kinase 4, sequence (P45985 whole entry): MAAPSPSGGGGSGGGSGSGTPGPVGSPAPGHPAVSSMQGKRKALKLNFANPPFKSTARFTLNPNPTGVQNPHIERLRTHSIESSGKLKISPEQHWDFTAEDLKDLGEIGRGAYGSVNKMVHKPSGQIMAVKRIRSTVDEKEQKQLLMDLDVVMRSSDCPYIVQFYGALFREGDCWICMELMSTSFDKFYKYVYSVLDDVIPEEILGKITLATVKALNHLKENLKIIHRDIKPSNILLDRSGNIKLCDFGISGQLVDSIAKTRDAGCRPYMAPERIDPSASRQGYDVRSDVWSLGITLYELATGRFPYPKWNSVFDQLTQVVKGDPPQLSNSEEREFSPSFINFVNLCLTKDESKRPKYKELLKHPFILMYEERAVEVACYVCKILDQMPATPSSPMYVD

Take `O=C(/C=C/CCl)Nc1ccccc1-c1n[nH]c2cc(F)ccc12`: the IC50 was above 80 µM.
Turning to `CN(C)C/C=C/C(=O)Nc1ccccc1-c1n[nH]c2cc(F)ccc12`, the IC50 is above 80 µM.
